How the values were obtained:
[1] = biological target: T1, RhuA (rRhuA; R. anatipestifer haemin uptake protein A) (Riemerella anatipestifer, UniProt J9QZE1); experiment: SDS-PAGE and ECL detection of bound haemin; format: binding; settings: positive control
T1 construct: gene B739_1417; recombinant
T1 sequence (J9QZE1 17-210): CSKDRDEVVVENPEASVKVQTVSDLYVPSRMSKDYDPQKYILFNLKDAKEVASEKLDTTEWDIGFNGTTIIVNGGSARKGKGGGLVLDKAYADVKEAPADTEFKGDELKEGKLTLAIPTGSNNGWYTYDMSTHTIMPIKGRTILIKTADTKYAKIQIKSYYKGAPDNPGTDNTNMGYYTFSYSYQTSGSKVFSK

[2] = biological target: recombinant RhuH protein (R. anatipestifer haem uptake protein haemophore), mature, without signal peptide (Riemerella anatipestifer CH-1); experiment: SEC; purified recombinant apo RhuH on size exclusion chromatography; elution compared with the 35 kDa of the sequence

Compound: C=CC1=C(C)C2=Cc3c(C=C)c(C)c4[n]3[Fe]([Cl])[n]3c(c(C)c(CCC(=O)O)c3=CC3=NC(=C4)C(C)=C3CCC(=O)O)=CC1=N2 [haemin]
- SDS-PAGE and ECL detection of bound haemin [1]: haemin signal was detected in the haem binding protein rRhuA (positive control) incubated with haemin

Compound: recombinant RhuH protein (R. anatipestifer haem uptake protein haemophore), mature, without signal peptide (natural protein)
- stoichiometry N [2]: 2

— publication PMC11967795 (Advanced Science, 2025)
